By MIC is commonly meant the smallest concentration in the dilution series that meets the test's criterion for growth inhibition.

The values below come from ChEMBL document CHEMBL1127894, “The synthesis of 2,2,24- trisubstituted oxetanes as new azole antifungal agents” (1994).

Experiment [1] has as its system Mus musculus. The experiment can be described thus: Geometri mean CFUs(log 10) for Candida albicans infected mice treated with 50 mg/kg of compound. Type of experiment: functional.
Experiment [2] has as its system Candida albicans. The experiment can be described thus: Tested for inhibition of yeast to mycelial transformation against six strains of Candida albicans at concentration of <0.03 ug/mL at pH 7.0; Active. Type of experiment: functional, organism-based.
Experiment [3] relates to Mus musculus. The experiment can be described thus: Compound was tested for in vivo activity against 1x 10ex6 CFU of Candida albicans C-43 infected mice at dose of 10 mg/kg; Inactive. Type of experiment: functional, organism-based. Also on record: dose 10 mg/kg.
Experiment [4] has as its system Candida parapsilosis. The experiment can be described thus: Minimum inhibitory concentration against two strains of Candida parapsilosis. Type of experiment: functional. Particulars: Lodderomyces parapsilosis.
Experiment [5] has as its system Mus musculus. The experiment is described as follows: Compound was tested for percent survival against Candida albicans C-43 at 50 mg/kg (iv) in mice. It is filed as functional.
Experiment [6] concerns Candida albicans. The experiment is described as follows: Tested for inhibition of yeast to mycelial transformation against Candida albicans C-43 at concentration of <0.03 ug/mL at pH 7.0; Active. Type of experiment: functional, organism-based.
The subject of experiment [7] is Candida albicans. The experiment is described as follows: Tested for inhibition of yeast to mycelial transformation against Candida stellatoidea at concentration of <0.03 ug/mL at pH 7.0; Active. It is filed as functional, organism-based.
In experiment [8] the test system is Candida albicans. The experiment is described as follows: Tested for inhibition of yeast to mycelial transformation against Candida albicans C-43 at concentration of 16->64 ug/mL at pH 7.0; Slightly active. It is filed as functional, organism-based.
The test system of experiment [9] is Candida parapsilosis. The experiment can be described thus: Minimum inhibitory concentration against two strains of C. parapsilosis; Inactive. It is filed as functional, organism-based.
In experiment [10] the test system is Candida albicans. The experiment is described as follows: Tested for inhibition of yeast to mycelial transformation against six strains of Candida albicans at concentration of 16->64 ug/mL at pH 7.0; Slightly active. It is filed as functional, organism-based.
The subject of experiment [11] is Candida albicans. The experiment can be described thus: Tested for inhibition of yeast to mycelial transformation against Candida stellatoidea at concentration of 16->64 ug/mL at pH 7.0; Slightly active. Type of experiment: functional, organism-based.
Experiment [12] has as its system Mus musculus. The experiment can be described thus: Compound was tested for in vivo activity against Candida albicans C-43 in mice at dose of 10 mg/kg; Inactive. Type of experiment: functional, organism-based. On the set-up: dose 10 mg/kg.
Experiment [13] concerns Mus musculus. The experiment can be described thus: Compound was tested for in vivo activity against Candida albicans C-43 in mice. Type of experiment: functional.
Experiment [14] has as its system Candida albicans. The experiment can be described thus: In vitro inhibition of yeast to mycelial transformation against Candida albicans C-43 at concentration of <0.03 ug/mL at pH 7.0; Active. It is filed as functional, organism-based.
The test system of experiment [15] is Candida albicans. The experiment can be described thus: In vitro inhibition of yeast to mycelial transformation against six strains of Candida albicans at concentration of <0.03 ug/mL at pH 7.0; Active. It is filed as functional, organism-based.
Experiment [16] concerns Candida albicans. The experiment can be described thus: In vitro inhibition of yeast to mycelial transformation against Candida stellatoidea at concentration of <0.03 ug/mL at pH 7.0; Active. Type of experiment: functional, organism-based.
The subject of experiment [17] is Candida albicans. The experiment can be described thus: Tested for inhibition of yaest to mycelial transformation against Candida albicans C-43 at concentration of <0.03 ug/mL at pH 7.0; Active. Type of experiment: functional, organism-based.

Converted amounts (≈) assume the structure as drawn. The source made the active and inactive calls.

`CC(C)N1CCN(c2ccc(OC[C@H]3CC[C@](Cn4cncn4)(c4ccc(Cl)cc4Cl)O3)cc2)CC1` showed an Activity in the experiment on Mus musculus [1] of 4.3. The result in the experiment on Candida albicans [2], with Candida albicans [6] and in the experiment on Candida albicans [7] was Active. Also, in the experiment with Mus musculus [3], the outcome was inactive. For the same compound, the minimum inhibitory concentration (MIC) against Candida parapsilosis [4] is 0.5 µg/mL (≈ 0.943 µM). This compound also returned a survival at 50 mg/kg with Mus musculus [5] of 100%.

Consider `CC(C)N1CCN(c2ccc(OC[C@@H]3C[C@@](Cn4cncn4)(c4ccc(Cl)cc4Cl)O3)cc2)CC1` (racemic) [listing 1 of 2 here], for which the minimal inhibitory concentration (MIC) against Candida parapsilosis [4] came to 32 µg/mL (≈ 62 µM).

In the case of `CC(C)N1CCN(c2ccc(OC[C@H]3C[C@@](Cn4cncn4)(c4ccc(Cl)cc4Cl)O3)cc2)CC1` (racemic), the Activity entry in the experiment with Candida albicans [8], with Candida albicans [10] and in the experiment on Candida albicans [11] was “Weak activity” in each case. Further, the MIC result in the experiment on Candida parapsilosis [9] is “inactive”.

For `CC(C)N1CCN(c2ccc(OC[C@H]3C[C@@](Cn4cncn4)(c4ccc(Cl)cc4Cl)O3)cc2)CC1` (relative stereo), the outcome with Mus musculus [3] was inactive.

With `CC(C)N1CCN(c2ccc(OC[C@@H](O)C[C@@](O)(Cn3cncn3)c3ccc(Cl)cc3Cl)cc2)CC1`, the result in the experiment with Mus musculus [12] was inactive. The outcome in the experiment on Candida albicans [2], in the experiment on Candida albicans [6] and in the experiment with Candida albicans [7] was Active. This compound had an Activity in the experiment with Mus musculus [13] of 4.4. In the experiment on Candida parapsilosis [4], this compound came in with a minimal inhibitory concentration (MIC) of 32 µg/mL (≈ 59.9 µM). This compound displayed a survival at 50 mg/kg in the experiment with Mus musculus [5] of 100%.

As to `CC(C)N1CCN(c2ccc(OC[C@@H]3C[C@@](Cn4cncn4)(c4ccc(Cl)cc4Cl)O3)cc2)CC1` (racemic) [listing 2 of 2 here], the outcome with Candida albicans [14], in the experiment with Candida albicans [15] and in the experiment with Candida albicans [16] was Active.

Regarding `CC(C)N1CCN(c2ccc(OC[C@H](O)C[C@@](O)(Cn3cncn3)c3ccc(Cl)cc3Cl)cc2)CC1`, in the experiment on Mus musculus [12], the outcome was inactive. Also, the outcome in the experiment with Candida albicans [2], with Candida albicans [7] and with Candida albicans [17] was Active. In the experiment on Mus musculus [13], the Activity is listed as 4.2. The minimum inhibitory concentration (MIC) against Candida parapsilosis [4] was found to be 32 µg/mL (≈ 59.9 µM). The compound also displayed a survival at 50 mg/kg in the experiment on Mus musculus [5] of 100%.

As to `CC(C)N1CCN(c2ccc(OC[C@@H]3C[C@@](Cn4cncn4)(c4ccc(Cl)cc4Cl)O3)cc2)CC1` (relative stereo), in the experiment on Mus musculus [3], the outcome was inactive.
